Activity calls are given as the source filed them. The rule behind the calls is not given here.
Tests used:
[1] = biological target: T1, Interleukin-1 receptor-associated kinase 4 (Homo sapiens) (UniProt Q9NWZ3); assay: Inhibition of IRAK4 at 5 uM
T1 sequence (whole entry): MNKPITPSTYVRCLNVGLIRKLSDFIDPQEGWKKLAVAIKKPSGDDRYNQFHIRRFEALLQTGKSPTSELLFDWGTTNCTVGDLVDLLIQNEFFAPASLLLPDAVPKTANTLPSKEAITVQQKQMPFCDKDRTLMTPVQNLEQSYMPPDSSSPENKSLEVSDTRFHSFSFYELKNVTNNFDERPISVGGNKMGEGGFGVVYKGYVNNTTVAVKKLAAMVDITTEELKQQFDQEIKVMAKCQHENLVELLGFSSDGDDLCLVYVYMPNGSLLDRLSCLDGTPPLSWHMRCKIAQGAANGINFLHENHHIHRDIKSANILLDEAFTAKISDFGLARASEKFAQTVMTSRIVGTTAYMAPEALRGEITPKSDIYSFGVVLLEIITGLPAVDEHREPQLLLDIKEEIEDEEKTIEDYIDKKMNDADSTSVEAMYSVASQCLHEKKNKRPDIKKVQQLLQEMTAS

[2] = biological target: MAP kinase-activated protein kinase 2 (Homo sapiens) (UniProt P49137); assay: Inhibition of MAPKAPK2
MAP kinase-activated protein kinase 2 (Homo sapiens), sequence (P49137 whole entry, looked up): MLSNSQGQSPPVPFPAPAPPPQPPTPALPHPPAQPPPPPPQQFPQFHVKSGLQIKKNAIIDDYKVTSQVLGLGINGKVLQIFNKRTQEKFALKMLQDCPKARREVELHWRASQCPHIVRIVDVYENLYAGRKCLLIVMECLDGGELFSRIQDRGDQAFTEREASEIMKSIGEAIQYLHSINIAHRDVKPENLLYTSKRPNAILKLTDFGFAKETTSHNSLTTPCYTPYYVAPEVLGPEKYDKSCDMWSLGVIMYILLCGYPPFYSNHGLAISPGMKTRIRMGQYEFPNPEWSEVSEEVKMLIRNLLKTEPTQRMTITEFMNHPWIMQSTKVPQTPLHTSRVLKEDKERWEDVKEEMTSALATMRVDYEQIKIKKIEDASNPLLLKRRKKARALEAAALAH

[3] = biological target: Serine/threonine-protein kinase MARK1 (Homo sapiens) (UniProt Q9P0L2); assay: Inhibition of MARK1
[4] = biological target: Hepatocyte growth factor receptor (Homo sapiens) (UniProt P08581); assay: Inhibition of MET
Hepatocyte growth factor receptor (Homo sapiens), sequence (P08581 whole entry): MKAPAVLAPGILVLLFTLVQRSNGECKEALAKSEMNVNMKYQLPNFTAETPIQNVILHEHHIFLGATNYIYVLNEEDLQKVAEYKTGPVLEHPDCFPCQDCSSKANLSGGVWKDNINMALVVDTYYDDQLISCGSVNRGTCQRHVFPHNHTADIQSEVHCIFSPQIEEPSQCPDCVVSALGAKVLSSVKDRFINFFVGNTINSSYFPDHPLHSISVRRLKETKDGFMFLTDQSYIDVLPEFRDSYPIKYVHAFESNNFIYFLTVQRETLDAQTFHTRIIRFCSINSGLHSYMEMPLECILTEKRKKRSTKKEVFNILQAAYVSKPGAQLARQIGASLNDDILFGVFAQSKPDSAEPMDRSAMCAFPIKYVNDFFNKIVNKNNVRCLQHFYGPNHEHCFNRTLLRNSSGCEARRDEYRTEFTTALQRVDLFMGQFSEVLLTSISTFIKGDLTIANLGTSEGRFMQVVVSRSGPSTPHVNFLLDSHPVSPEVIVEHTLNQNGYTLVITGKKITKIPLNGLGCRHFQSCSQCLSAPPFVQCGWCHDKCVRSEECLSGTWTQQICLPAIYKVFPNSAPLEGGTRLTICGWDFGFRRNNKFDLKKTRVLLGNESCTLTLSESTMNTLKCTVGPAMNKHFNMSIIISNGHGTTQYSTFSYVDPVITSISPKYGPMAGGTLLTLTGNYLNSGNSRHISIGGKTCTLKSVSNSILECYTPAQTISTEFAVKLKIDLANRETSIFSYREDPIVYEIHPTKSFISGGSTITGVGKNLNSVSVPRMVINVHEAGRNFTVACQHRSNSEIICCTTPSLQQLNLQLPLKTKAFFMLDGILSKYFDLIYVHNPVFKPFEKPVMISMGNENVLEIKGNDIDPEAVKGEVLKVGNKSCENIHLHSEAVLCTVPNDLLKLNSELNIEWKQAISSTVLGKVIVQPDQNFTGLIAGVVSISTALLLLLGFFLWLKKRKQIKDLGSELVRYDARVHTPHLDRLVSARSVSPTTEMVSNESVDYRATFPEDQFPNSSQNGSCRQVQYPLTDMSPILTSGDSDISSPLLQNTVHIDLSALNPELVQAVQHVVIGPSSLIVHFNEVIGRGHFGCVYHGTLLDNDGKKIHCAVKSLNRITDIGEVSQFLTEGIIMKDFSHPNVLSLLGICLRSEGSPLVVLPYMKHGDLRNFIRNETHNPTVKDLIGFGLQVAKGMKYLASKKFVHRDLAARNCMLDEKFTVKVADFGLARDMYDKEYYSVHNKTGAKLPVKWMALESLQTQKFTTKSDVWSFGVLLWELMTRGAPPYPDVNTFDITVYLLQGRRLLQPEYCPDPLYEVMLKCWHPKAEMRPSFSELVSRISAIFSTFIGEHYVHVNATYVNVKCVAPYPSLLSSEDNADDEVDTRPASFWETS

[5] = biological target: Ribosomal protein S6 kinase alpha-5 (Homo sapiens) (UniProt O75582); assay: Inhibition of MSK1
[6] = biological target: Mitogen-activated protein kinase 14 (Homo sapiens) (UniProt Q16539); assay: Inhibition of P38alpha
Mitogen-activated protein kinase 14 (Homo sapiens), sequence (Q16539 whole entry): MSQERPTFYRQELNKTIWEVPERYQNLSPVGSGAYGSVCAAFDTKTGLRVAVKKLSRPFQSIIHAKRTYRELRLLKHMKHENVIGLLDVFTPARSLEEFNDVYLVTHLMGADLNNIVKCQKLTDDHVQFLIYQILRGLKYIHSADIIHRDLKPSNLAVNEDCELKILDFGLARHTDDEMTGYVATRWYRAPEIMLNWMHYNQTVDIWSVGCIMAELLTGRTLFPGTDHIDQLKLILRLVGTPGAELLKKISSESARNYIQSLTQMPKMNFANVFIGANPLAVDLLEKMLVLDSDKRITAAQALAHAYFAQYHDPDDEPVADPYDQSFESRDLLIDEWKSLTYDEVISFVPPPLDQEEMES

[7] = biological target: Serine/threonine-protein kinase PAK 2 (Homo sapiens) (UniProt Q13177); assay: Inhibition of PAK2
[8] = biological target: Serine/threonine-protein kinase pim-2 (Homo sapiens) (UniProt Q9P1W9); assay: Inhibition of PIM2
Serine/threonine-protein kinase pim-2 (Homo sapiens), sequence (Q9P1W9 whole entry, looked up): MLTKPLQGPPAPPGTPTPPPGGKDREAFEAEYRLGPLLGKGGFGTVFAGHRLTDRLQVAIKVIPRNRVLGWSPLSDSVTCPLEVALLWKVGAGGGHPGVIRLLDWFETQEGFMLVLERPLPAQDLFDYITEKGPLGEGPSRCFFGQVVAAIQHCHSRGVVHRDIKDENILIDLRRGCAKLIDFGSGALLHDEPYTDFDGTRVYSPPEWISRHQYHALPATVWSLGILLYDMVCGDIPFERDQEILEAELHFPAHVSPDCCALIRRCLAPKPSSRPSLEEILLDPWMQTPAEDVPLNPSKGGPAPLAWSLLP

[9] = biological target: Protein kinase C beta type (Homo sapiens) (UniProt P05771); assay: Inhibition of PKCbeta2
Protein kinase C beta type (Homo sapiens), sequence (P05771 2-671 limits assumed): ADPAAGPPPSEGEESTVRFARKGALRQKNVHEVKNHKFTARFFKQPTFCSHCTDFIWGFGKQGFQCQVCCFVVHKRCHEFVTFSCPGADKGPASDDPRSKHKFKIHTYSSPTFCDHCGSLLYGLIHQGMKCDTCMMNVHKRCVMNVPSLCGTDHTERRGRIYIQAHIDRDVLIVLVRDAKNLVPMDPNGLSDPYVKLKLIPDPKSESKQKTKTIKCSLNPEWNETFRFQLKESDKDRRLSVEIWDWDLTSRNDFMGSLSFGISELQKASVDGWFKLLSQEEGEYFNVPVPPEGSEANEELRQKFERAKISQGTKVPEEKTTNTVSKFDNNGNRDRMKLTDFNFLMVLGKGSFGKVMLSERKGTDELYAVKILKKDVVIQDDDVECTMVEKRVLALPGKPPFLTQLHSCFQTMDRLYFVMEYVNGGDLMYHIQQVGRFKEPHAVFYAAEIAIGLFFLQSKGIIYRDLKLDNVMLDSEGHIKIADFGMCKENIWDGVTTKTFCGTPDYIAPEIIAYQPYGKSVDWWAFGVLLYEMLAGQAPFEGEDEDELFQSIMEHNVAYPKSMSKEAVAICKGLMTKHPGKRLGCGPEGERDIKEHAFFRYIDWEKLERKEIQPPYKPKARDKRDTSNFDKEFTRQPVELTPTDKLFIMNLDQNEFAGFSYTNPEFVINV

[10] = biological target: T2, Serine/threonine-protein kinase D2 (Homo sapiens) (UniProt Q9BZL6); assay: Inhibition of PKD2
T2 sequence (whole entry): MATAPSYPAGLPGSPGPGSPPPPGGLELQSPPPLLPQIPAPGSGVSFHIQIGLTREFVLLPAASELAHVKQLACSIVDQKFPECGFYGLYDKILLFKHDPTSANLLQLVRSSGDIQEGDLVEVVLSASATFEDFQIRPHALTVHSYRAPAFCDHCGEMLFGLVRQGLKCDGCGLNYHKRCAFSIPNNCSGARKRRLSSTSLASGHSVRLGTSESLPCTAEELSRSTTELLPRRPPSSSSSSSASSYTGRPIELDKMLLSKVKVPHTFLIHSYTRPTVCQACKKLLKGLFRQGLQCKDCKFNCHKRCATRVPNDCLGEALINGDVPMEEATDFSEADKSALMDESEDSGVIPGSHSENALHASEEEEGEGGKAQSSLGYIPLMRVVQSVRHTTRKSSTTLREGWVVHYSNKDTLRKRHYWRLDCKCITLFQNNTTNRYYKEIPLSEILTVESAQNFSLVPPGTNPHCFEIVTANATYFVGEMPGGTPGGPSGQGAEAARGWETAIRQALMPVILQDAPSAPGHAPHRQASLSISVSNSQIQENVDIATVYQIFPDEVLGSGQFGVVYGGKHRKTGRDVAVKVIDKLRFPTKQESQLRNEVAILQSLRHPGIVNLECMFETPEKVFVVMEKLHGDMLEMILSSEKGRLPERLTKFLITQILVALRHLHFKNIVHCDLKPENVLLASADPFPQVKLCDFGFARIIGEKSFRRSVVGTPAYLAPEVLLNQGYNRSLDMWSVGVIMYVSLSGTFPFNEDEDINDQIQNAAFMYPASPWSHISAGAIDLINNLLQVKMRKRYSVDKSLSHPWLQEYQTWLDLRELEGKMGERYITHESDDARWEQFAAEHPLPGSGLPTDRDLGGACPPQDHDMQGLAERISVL

[11] = biological target: Rho-associated protein kinase 2 (Homo sapiens) (UniProt O75116); assay: Inhibition of ROCK2
Rho-associated protein kinase 2 (Homo sapiens), sequence (O75116 whole entry, looked up): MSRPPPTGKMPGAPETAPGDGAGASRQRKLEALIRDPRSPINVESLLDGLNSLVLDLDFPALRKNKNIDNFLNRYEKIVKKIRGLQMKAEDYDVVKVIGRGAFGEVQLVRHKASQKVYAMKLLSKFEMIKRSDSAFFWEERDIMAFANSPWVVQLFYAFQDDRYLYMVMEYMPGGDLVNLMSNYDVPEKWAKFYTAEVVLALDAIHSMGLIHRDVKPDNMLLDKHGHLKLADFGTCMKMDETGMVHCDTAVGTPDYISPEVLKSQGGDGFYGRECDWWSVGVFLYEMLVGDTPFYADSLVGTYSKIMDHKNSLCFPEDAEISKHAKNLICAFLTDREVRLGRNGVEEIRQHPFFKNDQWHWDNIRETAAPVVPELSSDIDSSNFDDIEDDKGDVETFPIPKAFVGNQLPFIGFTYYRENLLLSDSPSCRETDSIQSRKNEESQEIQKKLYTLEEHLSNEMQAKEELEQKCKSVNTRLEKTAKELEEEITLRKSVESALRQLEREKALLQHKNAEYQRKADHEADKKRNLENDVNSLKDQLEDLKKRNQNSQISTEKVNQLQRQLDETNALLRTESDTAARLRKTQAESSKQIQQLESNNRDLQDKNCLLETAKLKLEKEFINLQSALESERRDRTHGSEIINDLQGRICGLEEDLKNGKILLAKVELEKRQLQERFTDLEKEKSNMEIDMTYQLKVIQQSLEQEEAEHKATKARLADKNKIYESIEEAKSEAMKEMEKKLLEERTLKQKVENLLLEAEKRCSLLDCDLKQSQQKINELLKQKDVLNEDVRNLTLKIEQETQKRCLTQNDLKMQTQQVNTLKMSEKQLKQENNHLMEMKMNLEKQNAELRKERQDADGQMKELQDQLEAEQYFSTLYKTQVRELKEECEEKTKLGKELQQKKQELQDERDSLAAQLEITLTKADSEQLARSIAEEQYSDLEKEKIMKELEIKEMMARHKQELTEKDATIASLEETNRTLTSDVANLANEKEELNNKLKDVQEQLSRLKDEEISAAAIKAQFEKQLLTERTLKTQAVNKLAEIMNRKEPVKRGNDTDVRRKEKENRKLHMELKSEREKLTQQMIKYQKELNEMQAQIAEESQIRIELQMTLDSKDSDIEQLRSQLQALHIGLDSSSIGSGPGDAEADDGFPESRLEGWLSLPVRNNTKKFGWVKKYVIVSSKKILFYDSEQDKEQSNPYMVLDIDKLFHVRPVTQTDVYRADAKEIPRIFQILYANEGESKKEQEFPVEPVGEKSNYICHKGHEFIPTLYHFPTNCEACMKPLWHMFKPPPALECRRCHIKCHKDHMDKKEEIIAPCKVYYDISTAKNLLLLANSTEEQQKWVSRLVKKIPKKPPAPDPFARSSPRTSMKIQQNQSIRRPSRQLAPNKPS

[12] = biological target: T3, Serine/threonine-protein kinase Sgk1 (Homo sapiens) (UniProt O00141); assay: Inhibition of SGK1
T3 sequence (whole entry): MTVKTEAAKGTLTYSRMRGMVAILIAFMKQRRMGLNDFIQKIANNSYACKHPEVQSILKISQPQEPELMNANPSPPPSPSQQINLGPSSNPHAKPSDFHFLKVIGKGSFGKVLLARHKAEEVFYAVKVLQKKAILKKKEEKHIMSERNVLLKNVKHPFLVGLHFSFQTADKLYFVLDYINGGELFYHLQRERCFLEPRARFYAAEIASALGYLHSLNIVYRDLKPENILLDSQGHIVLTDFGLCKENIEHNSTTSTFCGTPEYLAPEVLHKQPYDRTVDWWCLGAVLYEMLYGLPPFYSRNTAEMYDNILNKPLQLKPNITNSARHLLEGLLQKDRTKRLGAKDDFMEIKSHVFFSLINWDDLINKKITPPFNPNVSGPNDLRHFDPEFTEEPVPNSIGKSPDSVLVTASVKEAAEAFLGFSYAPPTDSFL

[13] = biological target: Receptor-type tyrosine-protein kinase FLT3 (Homo sapiens) (UniProt P36888); assay: Inhibition of FLT3
[14] = biological target: Tyrosine-protein kinase Fyn (Homo sapiens) (UniProt P06241); assay: Inhibition of FYN
[15] = biological target: Glycogen synthase kinase-3 beta (Homo sapiens) (UniProt P49841); assay: Inhibition of GSK3-beta
Glycogen synthase kinase-3 beta (Homo sapiens), sequence (P49841 whole entry, looked up): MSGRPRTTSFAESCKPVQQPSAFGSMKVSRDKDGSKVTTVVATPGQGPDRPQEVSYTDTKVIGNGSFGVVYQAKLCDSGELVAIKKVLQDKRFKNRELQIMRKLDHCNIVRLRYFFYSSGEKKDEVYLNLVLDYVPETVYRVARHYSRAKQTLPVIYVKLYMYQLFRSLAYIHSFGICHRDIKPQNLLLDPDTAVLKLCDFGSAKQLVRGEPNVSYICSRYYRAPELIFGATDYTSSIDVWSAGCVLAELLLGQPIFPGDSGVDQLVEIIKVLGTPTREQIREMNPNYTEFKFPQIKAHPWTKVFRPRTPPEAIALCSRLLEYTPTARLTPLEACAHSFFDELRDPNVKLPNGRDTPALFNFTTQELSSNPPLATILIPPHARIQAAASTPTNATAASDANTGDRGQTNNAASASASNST

[16] = biological target: Mitogen-activated protein kinase kinase kinase kinase 4 (Homo sapiens) (UniProt O95819); assay: Inhibition of HGK
[17] = biological target: Insulin-like growth factor 1 receptor (Homo sapiens) (UniProt P08069); assay: Inhibition of IGF1R
[18] = biological target: T4, Gamma-secretase (Homo sapiens) (UniProt Q96BI3+Q9NZ42+Q8WW43+P49768+Q92542+P49810); assay: Inhibition of gamma secretase mediated amyloid beta 38 generation in human H4 cells at 10 uM by LPECL assay; values are per cent of control
[19] = biological target: T4, Gamma-secretase (Homo sapiens); assay: Inhibition of gamma secretase mediated amyloid beta 40 generation in human H4 cells at 10 uM by LPECL assay; values are per cent of control

Row | inhibition [1] | inhibition [2] | inhibition [3] | inhibition [4] | inhibition [5] | inhibition [6] | inhibition [7] | inhibition [8] | inhibition [9] | inhibition [10] | inhibition [11] | inhibition [12] | inhibition [13] | inhibition [14] | inhibition [15] | inhibition [16] | inhibition [17] | residual activity [18] [%] | residual activity [19] [%] | Structure (SMILES)
1 | inactive | inactive | inactive | inactive | inactive | inactive | inactive | inactive | inactive | inactive | inactive | inactive | inactive | inactive | inactive | inactive | inactive | 86 | 93 | O=C1Nc2ccc(Cl)cc2/C1=C\c1ccc2c(c1)OCO2
2 | inactive | inactive | inactive | inactive | inactive | inactive | inactive | inactive | inactive | inactive | inactive | inactive | inactive | inactive | inactive | inactive | inactive | 99 | 97 | NC(=O)Cc1ccc(/C=C2/C(=O)Nc3ccc(Cl)cc32)cc1

Reference: ChEMBL document CHEMBL1157898 (Bioorg Med Chem Lett, 2010)
